# Laboratory results from ChEMBL document CHEMBL5325446, “Design and synthesis of proteolysis-targeting chimeras (PROTACs) as degraders of glutathione peroxidase 4” (Bioorg Med Chem, 2023).
# Active and inactive are the calls of the source. The rule behind the calls is not given here.
# Experiments:
# [1] = target: Protein cereblon/Phospholipid hydroperoxide glutathione peroxidase GPX4 (Homo sapiens) (UniProt Q96SW2+P36969); assay: PROTAC activity at CRBN/GPX4 in human MGC-803 cells assessed as induction of GPX4 degradation at 10 uM incubated for 24 hrs by Western blot analysis; assay type: cell-based
# Protein cereblon/Phospholipid hydroperoxide glutathione peroxidase GPX4 (Homo sapiens), sequence (P36969 whole entry, looked up): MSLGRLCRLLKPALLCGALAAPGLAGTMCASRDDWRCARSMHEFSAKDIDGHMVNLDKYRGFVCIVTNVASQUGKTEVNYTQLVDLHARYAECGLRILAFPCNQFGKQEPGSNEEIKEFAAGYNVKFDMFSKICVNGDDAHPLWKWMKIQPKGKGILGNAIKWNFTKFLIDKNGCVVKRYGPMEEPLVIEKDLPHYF
# Protein cereblon/Phospholipid hydroperoxide glutathione peroxidase GPX4 (Homo sapiens), sequence (Q96SW2 whole entry, looked up): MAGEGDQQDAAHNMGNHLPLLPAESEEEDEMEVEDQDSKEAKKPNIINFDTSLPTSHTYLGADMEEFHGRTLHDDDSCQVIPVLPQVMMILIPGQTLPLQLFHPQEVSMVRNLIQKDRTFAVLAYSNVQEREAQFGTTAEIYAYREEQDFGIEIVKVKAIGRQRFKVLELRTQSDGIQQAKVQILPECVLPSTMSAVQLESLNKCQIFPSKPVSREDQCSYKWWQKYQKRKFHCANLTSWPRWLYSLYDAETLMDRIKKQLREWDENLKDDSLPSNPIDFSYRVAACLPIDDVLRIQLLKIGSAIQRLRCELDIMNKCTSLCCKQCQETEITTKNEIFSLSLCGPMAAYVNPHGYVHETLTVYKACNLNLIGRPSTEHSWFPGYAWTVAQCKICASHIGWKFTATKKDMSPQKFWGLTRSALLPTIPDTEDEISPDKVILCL
# [2] = target: von Hippel-Lindau disease tumor suppressor/Phospholipid hydroperoxide glutathione peroxidase GPX4 (Homo sapiens) (UniProt P40337+P36969); assay: PROTAC activity at VHL/GPX4 in human MGC-803 cells assessed as induction of GPX4 degradation at 10 uM incubated for 24 hrs by Western blot analysis; assay type: cell-based
# von Hippel-Lindau disease tumor suppressor/Phospholipid hydroperoxide glutathione peroxidase GPX4 (Homo sapiens), sequence (P36969 whole entry, looked up): as the sequence (P36969 whole entry, looked up) above
# von Hippel-Lindau disease tumor suppressor/Phospholipid hydroperoxide glutathione peroxidase GPX4 (Homo sapiens), sequence (P40337 whole entry, looked up): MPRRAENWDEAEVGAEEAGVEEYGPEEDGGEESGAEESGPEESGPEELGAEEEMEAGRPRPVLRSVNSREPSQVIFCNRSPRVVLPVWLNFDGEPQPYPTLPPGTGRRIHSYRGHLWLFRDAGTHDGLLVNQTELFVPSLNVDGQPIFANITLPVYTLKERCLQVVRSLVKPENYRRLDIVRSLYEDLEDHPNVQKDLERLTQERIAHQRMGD
# [3] = tested on: HT-1080; assay: Cytotoxicity against human HT-1080 cells assessed as cell growth inhibition incubated for 48 hrs by CCK-8 assay; assay type: functional, cell-based; settings: HT-1080, 48 h
# [4] = tested on: HT-1080; assay: Induction of ferroptosis in human HT-1080 cells assessed as […] accumulation at 10 uM incubated for 12 hrs by C11-BODIPY staining based flow cytometry analysis; assay type: functional, cell-based
# [5] = tested on: HT-1080; assay: Induction of ferroptosis in human HT-1080 cells assessed as […] accumulation at 10 uM incubated for 24 hrs by C11-BODIPY staining based flow cytometry analysis; assay type: functional, cell-based
Activity [1] [%],Activity [2] [%],Structure (SMILES),other results
< 10,–,O=C(CCOCCNc1cccc2c1C(=O)N(C1CCC(=O)NC1=O)C2=O)NCCCCCCC(=O)Nc1ccc(N(C(=O)CCl)C(C(=O)NCCc2ccccc2)c2cccs2)cc1 (centres undefined),–
–,< 10,C=C(F)C(=O)N(c1ccc(NC(=O)CCOCCNC(=O)CCOCCNc2cccc3c2C(=O)N(C2CCC(=O)NC2=O)C3=O)cc1)C(C(=O)NCCc1ccccc1)c1cccs1 (centres undefined),–
18,–,O=C(CCOCCNc1cccc2c1C(=O)N(C1CCC(=O)NC1=O)C2=O)NCCCCCC(=O)Nc1ccc(N(C(=O)CCl)C(C(=O)NCCc2ccccc2)c2cccs2)cc1 (centres undefined),IC50 [3]: 31.8 µM
< 10,–,O=C(CCOCCNc1cccc2c1C(=O)N(C1CCC(=O)NC1=O)C2=O)NCCOCCOCCC(=O)Nc1ccc(N(C(=O)CCl)C(C(=O)NCCc2ccccc2)c2cccs2)cc1 (centres undefined),–
< 10,–,O=C(CCOCCNc1cccc2c1C(=O)N(C1CCC(=O)NC1=O)C2=O)NCCC(=O)Nc1ccc(N(C(=O)CCl)C(C(=O)NCCc2ccccc2)c2cccs2)cc1 (centres undefined),–
30.1,–,O=C(CCOCCNc1cccc2c1C(=O)N(C1CCC(=O)NC1=O)C2=O)NCCOCCC(=O)Nc1ccc(N(C(=O)CCl)C(C(=O)NCCc2ccccc2)c2cccs2)cc1 (centres undefined),IC50 [3]: 29.2 µM
< 10,–,O=C(CCOCCNc1cccc2c1CN(C1CCC(=O)NC1=O)C2=O)NCCCC(=O)Nc1ccc(N(C(=O)CCl)C(C(=O)NCCc2ccccc2)c2cccs2)cc1 (centres undefined),–
< 10,–,O=C(CCOCCNc1cccc2c1CN(C1CCC(=O)NC1=O)C2=O)NCCC(=O)Nc1ccc(N(C(=O)CCl)C(C(=O)NCCc2ccccc2)c2cccs2)cc1 (centres undefined),–
< 10,–,O=C(CCOCCNc1cccc2c1C(=O)N(C1CCC(=O)NC1=O)C2=O)NCCCCC(=O)Nc1ccc(N(C(=O)CCl)C(C(=O)NCCc2ccccc2)c2cccs2)cc1 (centres undefined),–
16.4,–,O=C(CCOCCOCCNc1cccc2c1C(=O)N(C1CCC(=O)NC1=O)C2=O)NCCOCCC(=O)Nc1ccc(N(C(=O)CCl)C(C(=O)NCCc2ccccc2)c2cccs2)cc1 (centres undefined),–
33,–,O=C1CCC(N2C(=O)c3cccc(NCCOCCC(=O)N4CCN(CC(=O)Nc5ccc(N(C(=O)CCl)C(C(=O)NCCc6ccccc6)c6cccs6)cc5)CC4)c3C2=O)C(=O)N1 (centres undefined),IC50 [3]: 11.7 µM; Activity [4]: Active; Activity [5]: Active
< 10,–,O=C(CCOCCNc1cccc2c1C(=O)N(C1CCC(=O)NC1=O)C2=O)NC(=O)Nc1ccc(N(C(=O)CCl)C(C(=O)NCCc2ccccc2)c2cccs2)cc1 (centres undefined),–
14.5,–,O=C1CCC(N2C(=O)c3cccc(NCCOCCOCCOCCOCCC(=O)Nc4ccc(N(C(=O)CCl)C(C(=O)NCCc5ccccc5)c5cccs5)cc4)c3C2=O)C(=O)N1 (centres undefined),–
33.8,–,O=C(CCOCCNc1cccc2c1C(=O)N(C1CCC(=O)NC1=O)C2=O)NCCCC(=O)Nc1ccc(N(C(=O)CCl)C(C(=O)NCCc2ccccc2)c2cccs2)cc1 (centres undefined),IC50 [3]: 37.7 µM
19.4,–,O=C1CCC(N2C(=O)c3cccc(NCCOCCOCCOCCC(=O)Nc4ccc(N(C(=O)CCl)C(C(=O)NCCc5ccccc5)c5cccs5)cc4)c3C2=O)C(=O)N1 (centres undefined),–

# Continued, compound first:
Structure (SMILES),Activity [1] [%],Activity [2] [%],other results
COc1ccc(N(C(=O)CCl)C(C(=O)NCCc2ccccc2)c2ccc(NC(=O)CCOCCOCCNc3cccc4c3C(=O)N(C3CCC(=O)NC3=O)C4=O)cc2)cc1Cl (centres undefined),–,< 10,–
Cc1ncsc1-c1ccc([C@H](C)NC(=O)[C@@H]2C[C@@H](O)CN2C(=O)[C@@H](NC(=O)CCCCC(=O)N2CCN(CC(=O)Nc3ccc(N(C(=O)CCl)C(C(=O)NCCc4ccccc4)c4cccs4)cc3)CC2)C(C)(C)C)cc1 (some centres undefined),–,< 10,–
Cc1ncsc1-c1ccc([C@H](C)NC(=O)[C@@H]2C[C@@H](O)CN2C(=O)[C@@H](NC(=O)CCCCCCC(=O)Nc2ccc(N(C(=O)CCl)C(C(=O)NCCc3ccccc3)c3cccs3)cc2)C(C)(C)C)cc1 (some centres undefined),–,45,Activity [4]: inactive; Activity [5]: Active
O=C(Cn1cc(COc2cccc3c2C(=O)N(C2CCC(=O)NC2=O)C3=O)nn1)NCCCCC(=O)Nc1ccc(N(C(=O)CCl)C(C(=O)NCCc2ccccc2)c2cccs2)cc1 (centres undefined),–,< 10,–
O=C1CCC(N2C(=O)c3cccc(NCCOCCOCCC(=O)N4CCN(CC(=O)Nc5ccc(N(C(=O)CCl)C(C(=O)NCCc6ccccc6)c6cccs6)cc5)CC4)c3C2=O)C(=O)N1 (centres undefined),18.2,–,–
COc1ccc(N(C(=O)CCl)C(C(=O)NCCc2ccccc2)c2ccc(NC(=O)CCOCCNC(=O)CCOCCNc3cccc4c3C(=O)N(C3CCC(=O)NC3=O)C4=O)cc2)cc1Cl (centres undefined),–,39.2,IC50 [3]: 13 µM
COc1ccc(N(C(=O)CCl)C(C(=O)NCCc2ccccc2)c2ccc(NC(=O)CCOCCOCCOCCNc3cccc4c3C(=O)N(C3CCC(=O)NC3=O)C4=O)cc2)cc1Cl (centres undefined),–,< 10,–
Cc1ncsc1-c1ccc([C@H](C)NC(=O)[C@@H]2C[C@@H](O)CN2C(=O)[C@@H](NC(=O)CCCCC(=O)Nc2ccc(N(C(=O)CCl)C(C(=O)NCCc3ccccc3)c3cccs3)cc2)C(C)(C)C)cc1 (some centres undefined),–,< 10,–
O=C1CCC(N2C(=O)c3cccc(OCC(=O)Nc4ccc(N(C(=O)CCl)C(C(=O)NCCc5ccccc5)c5cccs5)cc4)c3C2=O)C(=O)N1 (centres undefined),< 10,–,IC50 [3]: 11.9 µM; Activity [4]: Active; Activity [5]: Active
O=C1CCC(N2C(=O)c3cccc(NCCOCCOCCOCCOCCC(=O)N4CCN(CC(=O)Nc5ccc(N(C(=O)CCl)C(C(=O)NCCc6ccccc6)c6cccs6)cc5)CC4)c3C2=O)C(=O)N1 (centres undefined),19.9,–,–
COc1ccc(N(C(=O)CCl)C(C(=O)NCCc2ccccc2)c2ccc(NC(=O)CCOCCNc3cccc4c3C(=O)N(C3CCC(=O)NC3=O)C4=O)cc2)cc1Cl (centres undefined),–,28.7,–
Cc1ncsc1-c1ccc([C@H](C)NC(=O)[C@@H]2C[C@@H](O)CN2C(=O)[C@@H](NC(=O)CCCCCCCCC(=O)Nc2ccc(N(C(=O)CCl)C(C(=O)NCCc3ccccc3)c3cccs3)cc2)C(C)(C)C)cc1 (some centres undefined),–,28.6,–
Cc1ncsc1-c1ccc([C@@H](C)NC(=O)[C@@H]2C[C@@H](O)CN2C(=O)[C@@H](NC(=O)CCCCCC(=O)Nc2ccc(N(C(=O)CCl)C(C(=O)NCCc3ccccc3)c3cccs3)cc2)C(C)(C)C)cc1 (some centres undefined),–,< 10,–
O=C1CCC(N2C(=O)c3cccc(NCCOCCOCCOCCC(=O)N4CCN(CC(=O)Nc5ccc(N(C(=O)CCl)C(C(=O)NCCc6ccccc6)c6cccs6)cc5)CC4)c3C2=O)C(=O)N1 (centres undefined),< 10,–,–
Cc1ncsc1-c1ccc([C@H](C)NC(=O)[C@@H]2C[C@@H](O)CN2C(=O)[C@@H](NC(=O)CCCCCCCC(=O)Nc2ccc(N(C(=O)CCl)C(C(=O)NCCc3ccccc3)c3cccs3)cc2)C(C)(C)C)cc1 (some centres undefined),–,21,–
O=C1CCC(N2C(=O)c3cccc(OCC(=O)N4CCN(CC(=O)Nc5ccc(N(C(=O)CCl)C(C(=O)NCCc6ccccc6)c6cccs6)cc5)CC4)c3C2=O)C(=O)N1 (centres undefined),< 10,–,–
Cc1ncsc1-c1ccc([C@H](C)NC(=O)[C@@H]2C[C@@H](O)CN2C(=O)[C@@H](NC(=O)CCCCCCCCCC(=O)Nc2ccc(N(C(=O)CCl)C(C(=O)NCCc3ccccc3)c3cccs3)cc2)C(C)(C)C)cc1 (some centres undefined),–,< 10,–
